Laboratory results reported in patent US4783410A (priority 1985, dated 1988).
“Also recorded” adds a separate entry of the source.

Columns and labels:
[1] = molecular target: CTL serine esterase (G4 extract) (Mus musculus, UniProt P11032); assay: biochemical; assay type: biochemical, murine
[2] = tested on: specific target cell lysis of P815 cells by CTL clone G4; assay type: cell-based, murine
[3] = tested on: specific target cell lysis of P815 cells by CTL clone G4; details: cited from earlier work

CTL serine esterase (G4 extract), sequence (P11032 29-260): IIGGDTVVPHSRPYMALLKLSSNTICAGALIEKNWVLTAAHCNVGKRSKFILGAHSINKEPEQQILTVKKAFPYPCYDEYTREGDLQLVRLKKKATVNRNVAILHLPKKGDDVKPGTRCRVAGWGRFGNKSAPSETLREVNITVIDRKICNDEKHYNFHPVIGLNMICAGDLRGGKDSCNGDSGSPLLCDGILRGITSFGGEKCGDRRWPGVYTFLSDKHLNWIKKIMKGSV

## O=S(=O)(F)Cc1ccccc1 [PMSF, phenylmethylsulfonyl fluoride]
[1]
  Inhibition of CTL esterase activity (in words): blocked completely; also recorded: completely inhibitable
[2]
  Inhibition of lysis of P815 cells by cloned anti-D^d G4 cells: clearly inhibits lysis
G4 cells
  Toxicity to G4 cells by 51Cr release or reduced recovery of viable (trypan blue-negative) cells: no additive toxicity

## Cc1ccc(S(=O)(=O)NC(CCCCN)C(=O)CCl)cc1 (stereo not drawn) [TLCK, N^alpha -tosyl lysyl chloromethyl ketone]
[1]
  Inhibition of CTL esterase activity (in words): not, however, inhibited
[1]; read-out: Percent Inhibition of esterase activity
  inhibition at 500 µM: 4.6%
[3]
  Block of CTL cytotoxicity: known to block CTL cytotoxicity
